Activity calls are given as the source filed them. The calls are words filed in the database; no cut-off is given here. Where only a bound is given, the exact number is not on record here.

In assay [1] the target is T1, RAC-alpha serine/threonine-protein kinase (Homo sapiens, UniProt P31749). Kind of assay: Inhibition of Akt1 (1 to 480) expressed in Sf9 cells using biotin-GRPRTSSFAEG as substrate after 20 mins by Alpha-screen assay. For orientation: Bead proximity is the source of the signal in Alpha formats.
T1 sequence (P31749 whole entry): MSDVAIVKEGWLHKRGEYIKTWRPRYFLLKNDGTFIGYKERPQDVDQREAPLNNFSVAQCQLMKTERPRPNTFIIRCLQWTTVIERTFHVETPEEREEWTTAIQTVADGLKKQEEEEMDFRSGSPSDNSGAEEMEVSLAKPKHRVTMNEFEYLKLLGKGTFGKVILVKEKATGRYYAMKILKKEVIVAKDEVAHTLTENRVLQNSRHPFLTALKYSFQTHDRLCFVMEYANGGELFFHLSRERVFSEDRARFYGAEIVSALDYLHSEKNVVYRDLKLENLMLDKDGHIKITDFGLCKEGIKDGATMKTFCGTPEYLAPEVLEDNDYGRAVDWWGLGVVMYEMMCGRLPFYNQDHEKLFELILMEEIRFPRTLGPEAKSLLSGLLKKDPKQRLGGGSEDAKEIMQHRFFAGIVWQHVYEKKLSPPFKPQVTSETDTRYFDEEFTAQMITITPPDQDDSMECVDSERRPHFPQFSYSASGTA
The target of assay [2] is T1, RAC-alpha serine/threonine-protein kinase. The settings on record: Sf9.
For assay [3] the target is unchanged. Put plainly: Inhibition of Akt1 in human A2780 cells assessed as phosphorylation of Akt at S473 after 2 hrs by Western Blot analysis. Type of assay: cell-based.
The target is the same in assay [4]. Put plainly: Inhibition of Akt1 in human AN3CA cells assessed as phosphorylation of Akt at S473 after 2 hrs by Western Blot analysis. Type of assay: cell-based, AN3-CA. On the technique in general: In western blotting, separated proteins are transferred to a membrane and probed.
Assay [5] shares this target. Put plainly: Inhibition of Akt 1 in human A2780 cells assessed as phosphorylation of Akt at T308 after 2 hrs by Western Blot analysis. The assay is classed as cell-based.
For assay [6] the target is unchanged. Kind of assay: Inhibition of Akt 1 in human AN3CA cells assessed as phosphorylation of Akt at T308 after 2 hrs by Western Blot analysis. Type of assay: cell-based, AN3-CA.
For assay [7] the target is unchanged. Put plainly: Inhibition of Akt1 in human A2780 cells assessed as phosphorylation PRAS40 at T246 after 2 hrs by Western Blot analysis. The assay is classed as cell-based.
The target is the same in assay [8]. Kind of assay: Inhibition of Akt1 in human AN3CA cells assessed as phosphorylation PRAS40 at T246 after 2 hrs by Western Blot analysis. Type of assay: cell-based, AN3-CA.
A further assay deals with A2780. Kind of assay: Antiproliferative activity against human A2780 cells after 72 hrs by MTS assay. Type of assay: functional, cell-based. The settings on record: A2780, 72 h. (In general: Tetrazolium dyes change colour on reduction, which living cells bring about.)
The next assay concerns AN3-CA. Put plainly: Antiproliferative activity against human AN3CA cells after 72 hrs by MTS assay. The assay is classed as functional, cell-based.
Assay [9] addresses T2, RAC-beta serine/threonine-protein kinase (Homo sapiens, UniProt P31751). Kind of assay: Binding affinity to Akt2 (1 to 481) expressed in Sf9 cells assessed as change in melting temperature at 15 uM.
The target of assay [10] is T3, RAC-gamma serine/threonine-protein kinase (Homo sapiens, UniProt Q9Y243). Kind of assay: Binding affinity to Akt3 (1 to 479) expressed in Sf9 cells assessed as change in melting temperature at 15 uM.
T3 sequence (Q9Y243 whole entry): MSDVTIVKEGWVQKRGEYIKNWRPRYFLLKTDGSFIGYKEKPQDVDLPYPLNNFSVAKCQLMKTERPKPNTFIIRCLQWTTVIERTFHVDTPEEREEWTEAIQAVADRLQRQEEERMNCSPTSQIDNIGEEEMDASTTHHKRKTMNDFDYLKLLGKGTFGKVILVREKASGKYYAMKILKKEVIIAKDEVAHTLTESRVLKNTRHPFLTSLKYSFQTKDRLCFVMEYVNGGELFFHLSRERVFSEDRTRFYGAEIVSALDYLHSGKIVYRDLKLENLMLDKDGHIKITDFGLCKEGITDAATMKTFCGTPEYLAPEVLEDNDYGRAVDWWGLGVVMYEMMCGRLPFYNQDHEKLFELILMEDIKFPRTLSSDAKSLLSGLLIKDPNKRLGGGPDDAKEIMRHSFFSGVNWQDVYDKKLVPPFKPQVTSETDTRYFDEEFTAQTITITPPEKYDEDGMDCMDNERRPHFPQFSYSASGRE
For assay [11], the target named is T2, RAC-beta serine/threonine-protein kinase. Put plainly: Inhibition of Akt2 (1 to 481) expressed in Sf9 cells using biotin-GRPRTSSFAEG as substrate after 20 mins by Alpha-screen assay.
Assay [12] deals with T3, RAC-gamma serine/threonine-protein kinase. Kind of assay: Inhibition of Akt3 (1 to 479) expressed in Sf9 cells using biotin-GRPRTSSFAEG as substrate after 20 mins by Alpha-screen assay.
In assay [13] the target is T1, RAC-alpha serine/threonine-protein kinase. Put plainly: Inhibition of Akt1 (1 to 480) expressed in Sf9 cells by indirect affinity mass spectrometry assay.

T2 sequence (P31751 whole entry): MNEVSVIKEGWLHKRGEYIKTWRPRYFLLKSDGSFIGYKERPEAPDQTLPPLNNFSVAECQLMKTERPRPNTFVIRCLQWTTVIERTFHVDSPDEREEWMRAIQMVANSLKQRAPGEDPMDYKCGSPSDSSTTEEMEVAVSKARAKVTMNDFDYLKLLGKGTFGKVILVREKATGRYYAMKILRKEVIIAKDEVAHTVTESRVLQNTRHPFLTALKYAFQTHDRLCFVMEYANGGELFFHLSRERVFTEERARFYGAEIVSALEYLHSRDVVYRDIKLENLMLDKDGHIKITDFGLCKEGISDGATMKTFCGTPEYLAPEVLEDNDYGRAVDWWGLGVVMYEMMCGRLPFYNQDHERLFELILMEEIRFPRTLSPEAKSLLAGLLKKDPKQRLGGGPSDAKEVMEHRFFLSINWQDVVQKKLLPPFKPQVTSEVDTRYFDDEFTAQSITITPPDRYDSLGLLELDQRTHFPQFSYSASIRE

For `COc1ccccc1Cn1c(-c2cccnc2N)nc2cccnc21`, the 50% inhibitory concentration (IC50) (usually the concentration that inhibits the measured activity by half) in [1] stood at 58000 nM. Moreover, the deltaTm entry in assay [2] was “inactive”.

`NCc1ccc(-n2c(-c3cccnc3)nc3cccnc32)cc1` returned an IC50 in [1] of 8800 nM. In addition, in assay [2], the deltaTm entry was “inactive”.

Turning to `Nc1ncccc1-c1nc2ccc(-c3cccnc3)nc2n1-c1ccc(CC(=O)Nc2ccccc2)cc1`, the half-inhibitory concentration (IC50) in [3] came out at 65 nM; in assay [4], 69 nM; in [5] it was 55 nM; in assay [6], 51 nM; in assay [7], 480 nM; in assay [8], 2500 nM. For the same molecule, the half-inhibitory concentration (IC50) in the assay on A2780 worked out at 9400 nM; in the assay with AN3-CA, 8800 nM; in assay [1], 50 nM; in assay [11] it was 25 nM; in assay [12], 390 nM. Besides, the shift in melting temperature (ΔTm) – broadly, the change in melting temperature against a reference sample – in assay [9] came to 5.1 °C; in assay [10], 1.8 °C; in assay [2] it was 10.8 °C.

In [1], `Nc1ncccc1-c1nc2cccnc2n1-c1cccc(CNC(=O)c2ccccc2)c1` returned an IC50 of 13000 nM. Further, the deltaTm result in assay [2] was “inactive”.

Turning to `Nc1ncccc1-c1nc2cc(-c3ccccc3)cnc2n1-c1ccc(CNC(=O)c2ccccc2)cc1`, the IC50 in assay [3] is 330 nM; in [4], 160 nM; in [5], 680 nM; in [6], 1100 nM; in assay [7], 1800 nM; in assay [8], 980 nM. Further, the half-maximal inhibitory concentration (IC50) with A2780 is over 100000 nM; with AN3-CA, over 100000 nM; in [1], 33 nM; in [11], 51000 nM; in assay [12], over 100000 nM. In addition, the ΔTm in assay [9] stood at 1.2 °C; in [2], 5.61 °C. Besides, the deltaTm result in assay [10] was “inactive”.

Regarding `Nc1ncccc1-c1nc2cc(-c3cccnc3)cnc2n1-c1ccc(CNC(=O)c2cccc(F)c2)cc1`, the 50% inhibitory concentration (IC50) in assay [3] was determined as 54 nM; in assay [4], 46 nM; in assay [5], 200 nM; in assay [6] it was 49 nM; in assay [7], 580 nM; in assay [8], 820 nM. The 50% inhibitory concentration (IC50) in the assay on A2780 amounted to 19000 nM; in the assay with AN3-CA, 13000 nM; in assay [1], 5.2 nM; in assay [11], 27 nM. The thermal shift (ΔTm) in assay [9] stood at 5.4 °C; in assay [10], 1.5 °C; in assay [2] it was 9.4 °C.

For `Nc1ncccc1-c1nc2ccc(-c3cccnc3)nc2n1-c1ccc(CNC(=O)c2ccccc2)cc1`, the IC50 in assay [3] worked out at 34 nM; in assay [4], 1400 nM; in assay [5], 67 nM; in assay [6], 4200 nM; in assay [7], 740 nM; in assay [8], 3200 nM. Moreover, the IC50 in the assay on A2780 came out at 23000 nM; in the assay on AN3-CA it was 13000 nM; in [11], 32 nM; in assay [12] it was 370 nM. For the same molecule, the values for the ΔTm in [9], in assay [10] and in assay [2] were 4 °C, 1 °C and 9.7 °C, respectively.

Turning to `Nc1ncccc1-c1nc2ccc(-c3cccnc3)nc2n1-c1ccc(CNC(=O)c2cccc(F)c2)cc1`, the IC50 in assay [3] worked out at 190 nM; in assay [4], 95 nM; in assay [5], 690 nM; in [6], 340 nM; in [7] it was 1300 nM; in assay [8], 2100 nM. In addition, the IC50 in the assay with A2780 was found to be 10000 nM; in the assay with AN3-CA it was 10000 nM; in assay [1], 47 nM; in assay [11], 80 nM; in assay [12] it was 660 nM. For the same molecule, the ΔTm worked out at 5.7 °C in assay [9], 1.6 °C in [10] and 11.1 °C in assay [2].

On to `Nc1ncccc1-c1nc2cc(C3CCCC3)cnc2n1-c1ccc(CNC(=O)c2ccccc2)cc1`, for which the 50% inhibitory concentration (IC50) is 12000 nM in assay [13]; 3700 nM in assay [4]; 210 nM in assay [5]; 9400 nM in assay [6]; 2100 nM in [7]; over 10000 nM in [8]. The half-maximal inhibitory concentration (IC50) in the assay with A2780 is 65000 nM; in the assay with AN3-CA, 33000 nM; in assay [1], 110 nM; in assay [11] it was 800 nM; in [12], over 100000 nM. The ΔTm in [9] amounted to 3.3 °C; in assay [2] it was 6 °C. Also, in assay [10], the deltaTm entry was “inactive”.

For `CC(=O)Nc1ccc(-n2c(-c3cccnc3N)nc3cccnc32)cc1`, 1300 nM corresponded to half-maximal inhibition in assay [1] (IC50). The shift in melting temperature (ΔTm) in [2] came out at 3.7 °C.

`COc1ccccc1Cn1c(-c2ccncc2)nc2cc(Br)cnc21`: the 50% inhibitory concentration (IC50) in assay [13] was 5900 nM; in assay [1], over 300000 nM. The deltaTm result in [2] is “inactive”.

In assay [1], `Nc1ncccc1-c1nc2cccnc2n1-c1ccc(NC(=O)c2ccccc2)cc1` came in with a half-inhibitory concentration (IC50) of 14 nM. In addition, the thermal shift (ΔTm) in [2] turned out to be 7.3 °C.

Molecule `CC(C)(C)c1ccc(-n2c(-c3ccncc3)nc3cccnc32)cc1` registered an IC50 in assay [1] of over 300000 nM. The deltaTm result in assay [2] was “inactive”.

On to `Nc1ncccc1-c1nc2cc(Br)cnc2n1-c1ccc(CNC(=O)c2ccccc2)cc1`, for which the IC50 was under 12 nM in [3]; 2500 nM in assay [4]; 170 nM in assay [5]; over 10000 nM in assay [6]; 3100 nM in assay [7]; over 10000 nM in assay [8]. Besides, the IC50 in the assay with A2780 was 65000 nM; in the assay on AN3-CA, 60000 nM; in [1], 27 nM; in assay [11] it was 130 nM; in assay [12], over 10000 nM. The shift in melting temperature (ΔTm) in [9] worked out at 3 °C; in assay [10] it was 1 °C; in [2], 8.1 °C.

`Nc1ncccc1-c1nc2cccnc2n1-c1ccc(CNCc2ccccc2)cc1` returned a half-maximal inhibitory concentration (IC50) in assay [1] of 260 nM. Moreover, in assay [2], the ΔTm was found to be 4.9 °C.

In the case of `Nc1ncccc1-c1nc2ccc(-c3ccccc3)nc2n1-c1ccc(CNC(=O)c2ccccc2)cc1`, the IC50 in assay [3] is 68 nM; in [4], over 10000 nM; in [5] it was 180 nM; in assay [6] it was over 10000 nM; in assay [7], 410 nM; in assay [8] it was over 10000 nM. Besides, the 50% inhibitory concentration (IC50) came out at 9500 nM with A2780; 5500 nM with AN3-CA; 24 nM in [1]; 35 nM in assay [11]; 390 nM in [12]. Besides, the results for the ΔTm in assay [9], in assay [10] and in assay [2] were 6.4 °C, 1.8 °C and 11 °C, respectively.

Take `Nc1ccc(-n2c(-c3cccnc3N)nc3cccnc32)cc1`: the IC50 in assay [1] was 740 nM. In addition, in assay [2], the ΔTm is 4.1 °C.

On to `CC(=O)Nc1cccc(-c2ccc3nc(-c4cccnc4N)n(-c4ccc(CC(=O)Nc5cccc(F)c5)cc4)c3n2)c1`, for which the half-inhibitory concentration (IC50) in assay [3] amounted to 120 nM; in [4], 90 nM; in assay [5], 15 nM; in assay [6], 260 nM; in assay [7] it was 140 nM; in assay [8], 1500 nM. For the same molecule, the IC50 with A2780 was 3300 nM; in the assay with AN3-CA, 1700 nM; in assay [1] it was 17 nM; in assay [11], 24 nM; in assay [12], 2500 nM. For the same molecule, the figures for the shift in melting temperature (ΔTm) in assay [9], in assay [10] and in assay [2] were 6.7 °C, 1.5 °C and 11.1 °C, respectively.

Consider `Nc1ncccc1-c1nc2cccnc2n1-c1ccc(CNC(=O)Cc2ccccc2)cc1`, for which, in assay [2], the shift in melting temperature (ΔTm) was determined as 4.7 °C.

On to `CC(C)(C)c1ccc(-n2c(-c3cccnc3N)nc3cccnc32)cc1`, for which, in assay [2], the ΔTm was found to be 1.9 °C.

As for `CC(C)(C)c1cccc(-n2c(-c3cccnc3N)nc3cccnc32)c1`, the IC50 in [1] was over 300000 nM. In addition, the deltaTm entry in assay [2] was “inactive”.

`CC(=O)NCc1ccc(-n2c(-c3cccnc3N)nc3cccnc32)cc1` had a half-maximal inhibitory concentration (IC50) in [1] of 810 nM. Besides, the ΔTm in [2] was 2.3 °C.

`CC(C)(C)c1ccc(-n2c(-c3cccnc3N)nc3cc(Br)cnc32)cc1`: the half-maximal inhibitory concentration (IC50) in [1] was over 300000 nM. Further, the ΔTm in [2] was determined as 0.9 °C.

As for `CC(C)(C)c1ccc(-n2c(-c3cccnc3)nc3cccnc32)cc1`, 185000 nM corresponded to half-maximal inhibition in assay [1] (IC50). Besides, the deltaTm result in [2] is “inactive”.

With `CC(=O)Nc1cccc(-c2ccc3nc(-c4cccnc4N)n(-c4ccc(CNC(=O)c5ccccc5)cc4)c3n2)c1`, the IC50 in assay [3] came to 130 nM; in assay [4] it was 110 nM; in assay [5] it was 140 nM; in [6], 170 nM; in assay [7] it was 910 nM; in assay [8] it was 840 nM. The half-maximal inhibitory concentration (IC50) in the assay on A2780 turned out to be 1600 nM; with AN3-CA, 1500 nM; in [1], 15 nM; in assay [11], 47 nM; in [12], 170 nM. Besides, the shift in melting temperature (ΔTm) in [9] is 6.7 °C; in assay [10], 2.5 °C; in assay [2] it was 12.8 °C.

In assay [1], `COc1ccccc1Cn1c(-c2cccnc2N)nc2cc(Br)cnc21` had a 50% inhibitory concentration (IC50) of over 300000 nM. Further, the deltaTm entry in [2] is “inactive”.
